Experimental data taken from ChEMBL document CHEMBL5257049, “Interconvertible Pyridone Alkaloids from the Marine-Derived Fungus Penicillium oxalicum QDU1” (J Nat Prod, 2023).
pIC50: −log10 of the molar value.

system: RAW264.7; assay: Antiinflammatory activity in mouse RAW264.7 cells assessed as inhibition of LPS-stimulated NO production preincubated for 3 hrs followed by LPS stimulation and measured after 24 hrs by Griess reagent based assay; type: functional, cell-based

pIC50	Structure (SMILES)
4.77	CC[C@H](C)/C=C(C)/C=C/[C@H]1Oc2c(-c3ccc(O)cc3)c[nH]c(=O)c2[C@H](O)[C@H]1C
4.85	CC(/C=C/C=C(C)/C(O)=C1/C(=O)N/C(=C\c2ccc(O)cc2)C1=O)=C\[C@H](C)[C@@H](C)O
4.77	CO[C@@H]1c2c(c(-c3ccc(O)cc3)c[nH]c2=O)O[C@H](/C=C/C(C)=C/[C@H](C)[C@@H](C)O)[C@@H]1C
5.04	CC[C@H](C)/C=C(C)/C=C/[C@H]1Oc2c(-c3ccc(O)cc3)c[nH]c(=O)c2[C@H](OC)[C@H]1C
4.72	CC[C@H](C)/C=C(C)/C=C/[C@H]1Oc2c(-c3ccc(O)cc3)c[nH]c(=O)c2[C@@H](O)[C@@H]1C
4.82	CO[C@@H]1c2c(c(-c3ccc(O)cc3)c[nH]c2=O)O[C@@H](/C=C/C(C)=C/[C@H](C)[C@@H](C)O)[C@@H]1C
< 4.70	CC(/C=C/C=C(C)/C(O)=C1/C(=O)N[C@H]([C@@H](O)c2ccc(O)cc2)C1=O)=C\[C@H](C)[C@@H](C)O
< 4.70	CC(/C=C/[C@@H]1Oc2c(-c3ccc(O)cc3)c[nH]c(=O)c2[C@@H](O)[C@H]1C)=C\[C@H](C)[C@@H](C)O
< 4.70	CC(/C=C/[C@@H]1Oc2c(-c3ccc(O)cc3)c[nH]c(=O)c2[C@@H](O)[C@H]1C)=C\[C@H](C)[C@H](C)O
4.74	CO[C@@H]1c2c(c(-c3ccc(O)cc3)c[nH]c2=O)O[C@@H](/C=C/C(C)=C/[C@H](C)[C@H](C)O)[C@@H]1C
< 4.70	CC[C@H](C)/C=C(C)/C=C/[C@H]1Oc2c(-c3ccc(O)cc3)c[nH]c(=O)c2[C@H](OC)[C@@H]1C
< 4.70	CC[C@H](C)/C=C(C)/C=C/[C@H]1Oc2c(-c3ccc(O)cc3)c[nH]c(=O)c2[C@H](O)[C@@H]1C
< 4.70	CC(/C=C/[C@@H]1Oc2c(-c3ccc(O)cc3)c[nH]c(=O)c2[C@H](O)[C@H]1C)=C\[C@H](C)[C@@H](C)O
< 4.70	CC(/C=C/C=C(C)/C(O)=C1/C(=O)N[C@@H]([C@@H](O)c2ccc(O)cc2)C1=O)=C\[C@H](C)[C@@H](C)O
6.21	COc1ccc2c(c1)c(CC(=O)O)c(C)n2C(=O)c1ccc(Cl)cc1 [INDOMETHACIN]
